According to patent US8022055B2, “Betulinic acid derivatives” (Dabur Pharma Limited, priority 2005, dated 2011):
Converted amounts (≈) assume the structure as drawn. Like-named read-outs stand apart in the source and are kept apart here.

Columns and labels:
PA1 = experiment: three day MTT cytotoxicity assay, PA1; type: cell-based, human; conditions: for IC50: Homo sapiens, PA-1, PA1, 72 hours, read-out: IC50 for cell lines PA1; for IC50 for cell lines PA1: PA1, 72 hours
Method: (§1) Briefly, a three day MTT cytotoxicity assay was performed, which is based on the principle of uptake of MTT (3-(4,5-dimethylthiazol-2-yl)-2,5-diphenyl tetrazolium bromide), a tetrazolium salt, by the metabolically active cells where it is metabolized by active mitochondria into a blue colored formazan product that is read spectrophotometrically. MIT was dissolved in phosphate buffered saline with a pH of 7.4 to obtain an MIT concentration of 5 mg/ml; the resulting mixture was filtered through a 0.22-micron filter to sterilize and remove a small amount of insoluble residue. For each type of tumor cell, 10,000 to 15,000 cells were seeded in a 96-well culture plate and incubated with the individual betulinic acid derivatives in a CO2 incubator for a total of 72 hours. Control cells not treated with the betulinic acid derivatives were similarly incubated. The assay was terminated by adding 100 μg (20 μl) of MIT to each well then incubating for additional one hour, and finally adding 50 μl of 10% SDS-0.01N HCl to each well to lyse the cells and dissolve formazan. After incubating for one hour, the plate was read spectrophotometrically at 540 nm and the percentage of cytotoxicity calculated using the following formula: Cytotoxicity percentage=100×[1−(X/R1)], where X=(absorbance of treated sample at 540 nm)−(absorbance of blank at 540 nm) R1=absorbance of control sample at 540 nm. The IC50 Values of the cytotoxicity defined as the concentration at which 50% of the cells are killed in vitro was calculated for each cell line treated with each of the betulinic acid derivatives.

HBL100 = experiment: three day MTT cytotoxicity assay, HBL100; type: cell-based, human; conditions: for IC50: Homo sapiens, HBL-100, read-out: IC50 for cell lines HBL100; for IC50 / IC50 for cell lines HBL100: HBL100, 72 hours, MTT; for Specific Index (SI) for cell lines HBL100: ratio of IC50 of NIH 3T3 cells to HBL100
Method: (§2) A number of compounds listed in Table-3 were tested for cytotoxicity against prostate, lung, laryngeal, pancreas, breast, colon and ovarian cancer, leukemia and lymphoma, human tumor cell lines. Briefly, a three day MTT cytotoxicity assay was performed, which is based on the principle of uptake of MTT (3-(4,5-dimethylthiazol-2-yl)-2,5-diphenyl tetrazolium bromide), a tetrazolium salt, by the metabolically active cells where it is metabolized by active mitochondria into a blue colored formazan product that is read spectrophotometrically. MIT was dissolved in phosphate buffered saline with a pH of 7.4 to obtain an MIT concentration of 5 mg/ml; the resulting mixture was filtered through a 0.22-micron filter to sterilize and remove a small amount of insoluble residue. For each type of tumor cell, 10,000 to 15,000 cells were seeded in a 96-well culture plate and incubated with the individual betulinic acid derivatives in a CO2 incubator for a total of 72 hours. Control cells not treated with the betulinic acid derivatives were similarly incubated. The assay was terminated by adding 100 μg (20 μl) of MIT to each well then incubating for additional one hour, and finally adding 50 μl of 10% SDS-0.01N HCl to each well to lyse the cells and dissolve formazan. After incubating for one hour, the plate was read spectrophotometrically at 540 nm and the percentage of cytotoxicity calculated using the following formula: Cytotoxicity percentage=100×[1−(X/R1)], where X=(absorbance of treated sample at 540 nm)−(absorbance of blank at 540 nm) R1=absorbance of control sample at 540 nm. The IC50 Values of the cytotoxicity defined as the concentration at which 50% of the cells are killed in vitro was calculated for each cell line treated with each of the betulinic acid derivatives.

SW620 = experiment: three day MTT cytotoxicity assay, SW620; type: cell-based, human; conditions: for IC50: Homo sapiens, SW-620, SW620, 72 hours, read-out: IC50 for cell lines SW620; for IC50 for cell lines SW620: SW620, 72 hours
Method: as §1

in vivo = conditions: male, Wistar, rat, iv, 10 mg/kg
Method: (§3) Blood samples were taken at various times after administration and plasma was prepared and frozen at −20° C. until analysis. The plasma sample were analyzed by a suitable HPLC method using a C-18 column. The pH of water is adjusted to 3.0 with phosphoric acid. Start the gradient with 70% acetonitrile for 5 minutes and increase the concentration up to 100% within 25 minutes followed by hold at 100% for 10 minutes. It is thus possible to construct the curve showing the plasma concentration as a function of time and to determine different pharmacokinetic parameter of compound studied.

tumor = conditions: murine xenograft models; cited from earlier work
[1] = rat, in vivo, iv, 10 mg/kg
Method: as §3

Miapaca = experiment: three day MTT cytotoxicity assay, Miapaca; type: cell-based, human; conditions: for IC50: Homo sapiens, MIA PaCa-2, read-out: IC50 for cell lines Miapaca; for IC50 / IC50 for cell lines Miapaca: Miapaca, 72 hours, MTT; for Specific Index (SI) for cell lines Miapaca: ratio of IC50 of NIH 3T3 cells to Miapaca
Method: as §2

A549 = experiment: three day MTT cytotoxicity assay, A549; type: cell-based, human; conditions: for IC50: Homo sapiens, read-out: IC50 for cell lines A549; for IC50 / IC50 for cell lines A549: A549, 72 hours, MTT; for Specific Index (SI) for cell lines A549: ratio of IC50 of NIH 3T3 cells to A549
Method: as §2

DU145 = experiment: three day MTT cytotoxicity assay, DU145; type: cell-based, human; conditions: for IC50: Homo sapiens, DU-145, DU145, 72 hours, read-out: IC50 for cell lines DU145; for IC50 for cell lines DU145: DU145, 72 hours
Method: as §2

[2] = tested on: various cancer cell lines
normal cells = conditions: literature study; cited from earlier work
[3] = Pharmacokinetic study after intravenous injection; conditions: rat
Method: as §3

[4] = tested on: various cancer cell lines; experiment: in vitro cytotoxicity / anticancer activity, overall statement
NIH 3T3 cells = experiment: NIH3T3 cytotoxicity test (72 h MTT assay); type: cell-based; conditions: NIH3T3, 72 hours
Method: The cytotoxic effect of chemicals upon NIH 3T3 cells in culture is measured by cell metabolism determination using the previously described MIT assay. Healthy NIH 3T3 cells (an established cell-line), when maintained in culture continuously divide and multiply over time. The basis of this test is that a cytotoxic chemical (regardless of site or mechanism of action) will interfere with this process and, thus, result in a reduction of the growth rate as reflected by cell number. The degree of inhibition of growth, related to the concentration of the test compound, provides an indication of toxicity.
The NIH 3T3 cells are maintained in culture and exposed to test compounds over a range of concentrations and the number of viable cells determined after 72 hours exposure by MIT assay. The number of cells in the presence of test chemicals are compared to that observed in control cultures and the percent inhibition of growth calculated. The IC50 concentration (i.e. the concentration producing 50% inhibition of growth) is determined and expressed as μg/ml. A ratio of IC50 of NIH 3T3 cells to tumor cells is an indicator of predicted toxicity of the molecule and is represented as “Safety Index”. The higher the value, the better is the predicted safety of the molecule.

K562 = experiment: three day MTT cytotoxicity assay, K562; type: cell-based, human; conditions: for Specific Index (SI) for cell lines K562: ratio of IC50 of NIH 3T3 cells to K562
Method: as §2

[5] = male, Wistar, plasma, iv, 10 mg/kg

Row | SMILES | IC50 (PA1) [µg/mL] | IC50 (HBL100) [µg/mL] | IC50 (SW620) [µg/mL] | IC50 (Miapaca) [µg/mL] | IC50 (A549) [µg/mL] | IC50 (DU145) [µg/mL] | IC50 for cell lines NIH3T3 (NIH 3T3 cells) [µg/mL] | IC50 for cell lines PA1 (PA1) [µg/mL] | IC50 for cell lines HBL100 (HBL100) [µg/mL] | Specific Index (SI) for cell lines HBL100 (HBL100) | IC50 for cell lines SW620 (SW620) [µg/mL] | IC50 for cell lines Miapaca (Miapaca) [µg/mL] | Specific Index (SI) for cell lines Miapaca (Miapaca) | IC50 for cell lines A549 (A549) [µg/mL] | Specific Index (SI) for cell lines A549 (A549) | IC50 for cell lines DU145 (DU145) [µg/mL] | IC50 for cell lines K562 (K562; K562, 72 hours, MTT) [µg/mL] | Specific Index (SI) for cell lines K562 (K562) | other results
1 | CC(C)[C@@H]1CC[C@]2(C(=O)O)CC[C@]3(C)C(CCC4[C@@]5(C)CC/C(=N/Oc6ccc([N+](=O)[O-])cc6)C(C)(C)C5CC[C@]43C)C12 (stereo partly shown) [MJ1098-RS (III)] | 3.63 (≈ 6.12 µM) | 2.82 (≈ 4.76 µM) | 3.4 (≈ 5.74 µM) | 3.17 (≈ 5.35 µM) | 1.18 (≈ 1.98 µM) | 0.82 (≈ 1.38 µM) | – | – | – | – | – | – | – | – | – | – | – | – | AUC (in vivo): 43600 ng·h/mL; C0 (in vivo): 101 µg/mL; Vd (in vivo): 0.0006 L; half-life (in vivo): 9.9 h; tumor reduction (tumor): shows tumor reduction; elimination (Kel) as compared to betulinic acid [1]: slower elimination; plasma concentrations as compared to betulinic acid (II) [1]: quite high and long lasting; systemic exposure (AUC0-∞) as compared to betulinic acid [1]: better systemic exposure; in vitro cytotoxicity / anticancer activity (in words) [2]: good in vitro cytotoxicity
2 | C=C(C)[C@@H]1CC[C@]2(C(=O)O)CC[C@]3(C)[C@H](CC[C@@H]4[C@@]5(C)CC[C@H](O)C(C)(C)[C@@H]5CC[C@]43C)[C@@H]12 [Betulinic Acid (II), 33-hydroxy-lup-20(29)-en-28-oic acid, reference compound] | 11.5 (≈ 25.2 µM) | 5.02 (≈ 11 µM) | 13.3 (≈ 29 µM) | > 20 | 3.01 (≈ 6.59 µM) | > 20 | – | – | – | – | – | – | – | – | – | – | – | – | toxicity against normal cells (normal cells): minimal toxicity against normal cells; AUC [3, 5]: 13900 ng·h/mL; AUC(0-t) [3, 5]: 10600 ng·h/mL; C0 [3, 5]: 36 µg/mL; Vd [3, 5]: 0.0416 L; half-life [3, 5]: 0.265 h; Kel ([3]; 10 mg/kg intravenous, plasma): 2.60 h⁻¹
3 | C=C(C)[C@@H]1CC[C@]2(C(=O)O)CC[C@]3(C)C(CCC4[C@@]5(C)Cc6c([nH]c7ccc(Cl)cc67)C(C)(C)C5CC[C@]43C)C12 (stereo partly shown) [Compound 5, 5′-Chloro-2,3-didehydroindolo[2′,′:2,3]betulinic acid] | – | – | – | – | – | – | 4.6 ± 0.14 | 2.5 | 11.75 ± 1.65 | 0.391 | 2.7 | 2.44 ± 0.26 | 1.885 | 7.14 ± 0.5 | 0.644 | 4.9 | 9.61 ± 0.78 | 0.478 | in vitro cytotoxicity / anticancer activity (in words) [4]: significantly improved anticancer activity over betulinic acid; elimination (Kel) as compared to betulinic acid ([3]; 10 mg/kg intravenous): slower elimination; pharmacokinetic properties (in words) ([3]; 10 mg/kg intravenous): significantly superior pharmacokinetic properties over betulinic acid; plasma concentrations as compared to betulinic acid (II) ([3]; 10 mg/kg intravenous): quite high and long lasting; systemic exposure (AUC0-∞) as compared to betulinic acid ([3]; 10 mg/kg intravenous): better systemic exposure; AUC(0-e) ([3]; 10 mg/kg intravenous, plasma): 78400 ng·h/mL; C0 ([3]; 10 mg/kg intravenous, plasma): 132.2 µg/mL; T1/2 ([3]; 10 mg/kg intravenous, plasma): 6.7 h; Vd ([3]; 10 mg/kg intravenous, plasma): 0.00023 L
4 | C=C(C)[C@@H]1CC[C@]2(C(=O)NCC(=O)OC)CC[C@]3(C)C(CCC4[C@@]5(C)Cc6c([nH]c7ccc(Cl)cc67)C(C)(C)C5CC[C@]43C)C12 (stereo partly shown) [Compound 23, 28-N-Methylglycinate-5′-chloro-2,3-didehydroindolo[2′,3′:2,3]betulinamide] | > 20 | > 20 | > 20 | > 20 | > 20 | > 20 | – | – | – | – | – | – | – | – | – | – | – | – | IC50 (NIH 3T3 cells; Mus musculus, read-out: IC50 for cell lines NIH3T3): > 20 µg/mL; IC50 (K562; Homo sapiens, K562, 72 hours, MTT, read-out: IC50 for cell lines K562): > 20 µg/mL
5 | C=C(C)[C@@H]1CC[C@]2(C(=O)OCc3ccccc3)CC[C@]3(C)C(CCC4[C@@]5(C)Cc6c([nH]c7ccc(Cl)cc67)C(C)(C)C5CC[C@]43C)C12 (stereo partly shown) [Compound 19, 28-O-Benzyl-5′-chloro-2,3-didehydroindolo[2′,′:2,3]betulinate] | – | – | – | – | – | – | >20 | >20 | >20 | – | >20 | >20 | – | >20 | – | >20 | >20 | – | –
6 | C=C(C)[C@@H]1CC[C@]2(C(=O)O)CC[C@]3(C)[C@H](CC[C@@H]4[C@@]5(C)Cc6c([nH]c7ccccc67)C(C)(C)[C@@H]5CC[C@]43C)[C@@H]12 [Compound 1, 2,3-Didehydroindolo[2′,′:2,3]betulinic acid] | – | – | – | – | – | – | 6.9 ± 0.76 | 6.01 | 10.3 ± 0.9 | 0.669 | 5.151 | 6.7 ± 0.59 | 1.029 | 7.6 ± 0.57 | 0.907 | 8.86 | 10.05 ± 0.61 | 0.68 | –
7 | C=C(C)[C@@H]1CC[C@]2(C(=O)O)CC[C@]3(C)[C@H](CC[C@@H]4[C@@]5(C)Cc6c([nH]c7ccc(OC)cc67)C(C)(C)[C@@H]5CC[C@]43C)[C@@H]12 [Compound 10, 2,3-Didehydro-5′-methoxyindolo[2′,′:2,3]betulinic acid] | – | – | – | – | – | – | 7.5 ± 0.48 | 5.8 | 12.8 ± 0.39 | 0.586 | 8.4 | 6.4 ± 0.44 | 1.172 | 8.2 ± 0.14 | 0.915 | 5.75 | >20 | <0.38 | –
8 | C=C(C)[C@@H]1CC[C@]2(C(=O)Nc3ccccn3)CC[C@]3(C)C(CCC4[C@@]5(C)Cc6c([nH]c7ccc(Cl)cc67)C(C)(C)C5CC[C@]43C)C12 (stereo partly shown) [Compound 25, 28-N-(2″-pyridine)-5′-chloro-2,3-didehydroindolo[2′,′:2,3]betulinamide] | – | – | – | – | – | – | >20 | >20 | >20 | – | >20 | >20 | – | >20 | – | >20 | >20 | – | –
